From patent US9056847B2, “Activity based probes (ABPs) interacting with glycosidases” (ACADEMISCH MEDISCH CENTRUM BIJ UNIVERSITEIT VAN AMSTERDAM, priority 2010, dated 2015)
Where two headings read alike, the source gives them in different places.

Assays:
GBA [1] = molecular target: T1, GBA (Homo sapiens (Human), UniProt P04062, R534H); assay: GBA enzyme activity assay with 4-methylumbelliferyl β-D-glucopyranoside, inhibitor preincubated 30 min (apparent IC50); assay type: biochemical
GBA1 [2] = molecular target: GBA1 (Homo sapiens (Human), UniProt P04062); assay: Kinetic constants of GBA1 inhibition (Table 2); assay type: biochemical; settings: Table 2 kinetic constants
GBA [3] = molecular target: T1, GBA; assay: Continuous substrate release assay for inhibition constants; assay type: biochemical
From the text: Previously discontinuous methods have been used to determine the inhibition constants of glycosidase inhibitors. […] Therefore the inhibition constants have been determined in a continuous substrate assay which was first described in 1982 (2) and has recently been reappraised in 2010 (3). In these experiments, inhibition of the enzyme and hydrolysis of the substrate proceed concurrently making the situation slightly more complex than the discontinuous (FIG. 39 Scheme 2). The time-dependent interaction of inhibitor (I) with free β-glucosidase (E) was considered to occur in separate stages (A). A rapid reversible interaction is followed by a slower, irreversible reaction that transforms the reversible enzyme-inhibitor complex (EI) into an irreversible enzyme-inhibitor complex (EI*) (FIG. 39 Scheme 2). Progress curves were obtained (FIG. 28a) and apparent rate constant k′ was plotted versus the concentration (FIG. 28b) to obtain estimates of the Ki (equilibrium constant) and ki (rate constant)
To 100 μL McIlvaine buffer (pH 5.2, 0.2% sodium taurocholate, 0.1% Triton X-100) containing 4-methylumbelliferyl β-D-glucoside (7.5 mM) in Greiner flat bottom black 96-well plate was added 5 μL inhibitor (25× stock in DMSO). The resulting mixture was preincubated at 37° C. for 15 min in a TECAN GENios microplate reader. GBA (2 ng) in McIlvaine buffer (20 μL pH 5.2, 0.2% sodium taurocholate, 0.1% Triton X-100) was preheated to 37° C. for 15 min before being added to the substrate mix. The resulting solution was mixed by horizontal shaking for 15 sec, after which release 4-methylumbelliferyl measured with a TECAN GENios platereader (λex 340 nm and λem 465 nm) for the indicated time. Bleaching of the fluorophore, which was observed during the assay, was corrected by subtracting blanks (100 μL substrate buffer, 5 μL DMSO, 20 μL McIlvaine buffer). Apparent rate constants k′ were obtained by fitting the resulting progress curves (FIG. 28A) to the one-phase association equitation y (y max y0)(1−exp^−kt)yo+in GraphPad Prism version 5.00 for Windows, GraphPad Software, San Diego Calif. USA, www.graphpad.com. Measurements were performed in nine fold and plotting of the obtained k′ values versus [^I0] yielded rectangular hyperbolar functions (FIG. 28B).
[formula] estimates of Ki app and ki were obtained. The Ki value in the absence of substrate was obtained by correcting the Ki app with […]

GBA [4] = molecular target: T1, GBA; assay: Sensitivity of detection of ABP-labeled GBA on slab gel by fluorescence scanning
Procedure: After the incubation, we resolved the protein preparations with SDS-PAGE and analyzed the labeled proteins by fluorescence scanning of the slab gel on a Typhoon Variable Mode Imager (FIG. 24a). Labeled recombinant GBA migrated at the expected mass of 57 kDa. […] We could detect as little as 20 attomol GBA by fluorescence scanning. […] Apparently, nearly all of the probe had been covalently bound to recombinant GBA, consistent with its high affinity for binding.

GBA1 [5] = molecular target: GBA1 (Homo sapiens (Human), UniProt P04062, N370S); assay: In situ labeling of GBA1 in Gaucher (N370S) fibroblasts; assay type: cell-based; settings: 20 nM for 1 hour, N370S GBA1 homozygote fibroblasts
Procedure: FIG. 20 presents a schematic illustration of Gaucher treatment (FIG. 20a) via the chaperone isofagimine, whose structure is separately shown in FIG. 20b. […] The fibroblasts were labeled with Fluorophore 1-cyclophellitol (for example 20 nM for 1 hour), wherein about 50% of cellular GBA1 was labeled.

glucocerebrosidase = glucocerebrosidase (Homo sapiens (Human), UniProt P04062); assay: In situ inhibition of glucocerebrosidase in cells at 18° C. and 37° C.; assay type: cell-based; settings: 10 nM, 2 hours
From the text: To identify the mechanism of entry of the probes, we performed a temperature experiment. […] We harvested the cells and determined the residual activity using a fluorogenic substrate assay. […] We therefore exclude that the uptake is solely by endocytosis.

GBA [6] = molecular target: T2, GBA (Mus musculus (Mouse), UniProt P17439); assay: Labeling of GBA in live mice; assay type: in vivo; settings: 0.1 nmol intravenously, 2 h
Procedure: We next studied the labeling of GBA by MDW941 in intact fibroblasts using time-lapse microscopy. […] As a control, matched mice received the buffer solution intravenously. […] In addition to GBA, MDW933 clearly labeled other proteins that occur in the intestine in the mouse.
Experimental procedures were all approved by the appropriate ethics committee for animal experiments. C57BI/6J mice were obtained from Harlan and fed a commercially available lab diet (RMH-B; Hope Farms). […] After 2 h of administration the mice were anesthetized with FFM mix (1 ml of fentanylcitrate, 1 ml of midazalam and 2 ml of distilled water), and blood, urine and organs were collected and directly frozen in liquid nitrogen. […] Homogenates were analyzed as described above.
Target sequence in this assay (P17439 20-515): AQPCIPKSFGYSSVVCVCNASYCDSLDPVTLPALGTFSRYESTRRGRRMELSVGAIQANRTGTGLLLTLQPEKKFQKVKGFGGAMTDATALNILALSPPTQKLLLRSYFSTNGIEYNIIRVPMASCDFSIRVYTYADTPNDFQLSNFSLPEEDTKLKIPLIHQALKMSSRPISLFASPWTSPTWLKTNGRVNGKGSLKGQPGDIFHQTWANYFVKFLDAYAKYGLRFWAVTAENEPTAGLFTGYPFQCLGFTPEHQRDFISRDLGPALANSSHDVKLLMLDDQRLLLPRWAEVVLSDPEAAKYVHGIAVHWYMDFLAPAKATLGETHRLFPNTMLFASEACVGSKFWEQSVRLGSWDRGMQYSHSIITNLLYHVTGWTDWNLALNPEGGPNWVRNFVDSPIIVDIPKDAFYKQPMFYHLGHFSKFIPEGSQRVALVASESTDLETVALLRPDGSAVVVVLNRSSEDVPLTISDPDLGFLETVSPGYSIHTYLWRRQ

[7] = tested on: lactase (lactase-phloridzin hydrolase: LPH); assay: Lactase activity inhibition (liberated glucose); settings: incubation for 30 min with 1 mM
GBA [8] = molecular target: T2, GBA; assay: Labeling specificity in cell homogenates (SDS-PAGE, fluorescence scanning); settings: 100 nM, 30 min, 37° C., homogenates of cultured RAW cells
Target sequence in this assay (P17439 20-515 limits assumed): as the sequence (P17439 20-515) above

T1 sequence (P04062 40-536 R534H): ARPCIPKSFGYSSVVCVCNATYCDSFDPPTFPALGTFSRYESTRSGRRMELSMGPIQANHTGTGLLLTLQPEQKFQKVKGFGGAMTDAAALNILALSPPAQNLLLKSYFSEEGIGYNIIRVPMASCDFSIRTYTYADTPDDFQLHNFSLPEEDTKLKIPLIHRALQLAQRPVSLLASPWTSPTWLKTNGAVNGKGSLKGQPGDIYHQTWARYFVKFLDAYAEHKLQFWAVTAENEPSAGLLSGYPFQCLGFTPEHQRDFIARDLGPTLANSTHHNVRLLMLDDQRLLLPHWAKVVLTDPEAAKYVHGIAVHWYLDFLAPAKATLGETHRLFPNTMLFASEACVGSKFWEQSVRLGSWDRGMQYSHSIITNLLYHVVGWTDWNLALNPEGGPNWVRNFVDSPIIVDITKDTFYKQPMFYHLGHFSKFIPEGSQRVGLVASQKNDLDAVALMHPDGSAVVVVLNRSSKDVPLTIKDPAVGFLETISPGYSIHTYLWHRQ
Chain of GBA1 (Homo sapiens (Human), UniProt P04062) (P04062 40-536): as the sequence (P04062 40-536 R534H) above, with H495R counted along it
Chain of GBA1 (Homo sapiens (Human), UniProt P04062, N370S) (P04062 40-536 N409S): as the sequence (P04062 40-536 R534H) above, with N370S, H495R counted along it
Chain of glucocerebrosidase (P04062 40-536): as the sequence (P04062 40-536 R534H) above, with H495R counted along it

CC1=CC(C)=[N+]2C1=C(CCCCc1cn(C[C@@H]3[C@@H](O)[C@H](O)[C@@H](O)[C@@H]4O[C@H]34)nn1)c1c(C)cc(C)n1[B-]2(F)F [MDW933]
IC50 (GBA [1]; FIG. 16, ABPs designed for GBA1, read-out: IC50): 2 nM | IC50 (GBA [1]; rec. GBA1, 30 min, 37 C., pH 5.2 + Tch, Tr, read-out: Apparent IC50 (nM) rec. GBA1: 30 min, 37 C., pH 5.2 + Tch, Tr): 2 ± 0.5 nM | IC50 (GBA [1]; recombinant GBA, read-out: apparent half-maximal inhibitory concentration (IC50)): 1.24 ± 0.04 nM | Ki (GBA1 [2]): 0.95 nM | ki (GBA1 [2]): 0.0236 min⁻¹ | Ki (GBA [3]; equilibrium constant for initial binding, reported with s.e.m.): 7 ± 2 nM | ki (GBA [3]; rate constant, reported with s.e.m.): 0.127 ± 0.024 min⁻¹ | ki/Ki (GBA [3]; relative rate constant): 296000 M⁻¹ s⁻¹ | amount of labeled GBA detectable by fluorescence scanning (GBA [4]; 2 pmol GBA with excess probe, 1 h, 37° C., titration on gel): 20 attomol | amount of probe resulting in detectable GBA on slab gel (GBA [4]; 2 pmol GBA, 30 min): 20 attomol | amount of GBA1 detected on slab gel (GBA [4]; ABP-labeled GBA1): 10 attomole | cellular GBA1 labeled (GBA1 [5]): about 50% | in situ glucocerebrosidase activity (glucocerebrosidase): blocked glucocerebrosidase activity in situ | in vivo labeling of GBA in brain (GBA [6]; brain): almost no GBA | in vivo labeling of GBA in most tissues (GBA [6]; lung and liver): a considerable proportion of GBA | inhibition of lactase activity [7]: ~90% | labeling specificity (GBA [8]): exclusive labeling of GBA
